Measurements as given in patent publication US6693073B2, “Pulmonary delivery of active agents” (Emisphere Technologies, Inc., priority 1998, dated 2004).
Read-outs that look alike come from different tables or passages of the source. Each block holds one compound with its values, some of them ahead of it.

Legend:
Solubility of carriers = type: physicochemical; details: water, thermodynamic from solid; clear solution, pH 6.85
[1] = Serum insulin after pulmonary instillation of insulin with carrier compound (Example 4); type: in vivo, rat; details: rats, spray instillation into airway; insulin 0.03 mg/kg with carrier compound 16 mg/kg
Procedure: Carrier compound B, carrier compound C sodium salt, and carrier compound D in Table 10 were tested as follows.
An endotracheal tube (spray instillator from Penn Century of Philadelphia, Pa.) with a syringe (Hamilton syringe) attached to the endotracheal tube was inserted using a fiber optic laryngoscope.

plasma glucose = assay: Plasma glucose pharmacodynamics after lung spray-IT instillation to rats; type: in vivo, Sprague Dawley female rats
Procedure: Determination of fasting plasma glucose levels was performed using the Ektachem DT Slide (GLU) method. The analysis is based on the enzyme-catalyzed reaction of glucose with molecular oxygen, followed by a second reaction that produces a highly-colored red dye. The intensity of the color is proportional to the amount of glucose in the sample.
The percentage minimum plasma glucose concentration (%MPGC) and the time T to attain each %MPGC (T%MPGC) were determined from the average plasma glucose levels versus-time profiles for the treatments.
The area above the curve effect (AACE) was calculated as follows:
AACE=Total area−AUCE (Eq.2)
where AUCE represents the area under the curve effect calculated using the trapezoidal rule.
The percentage total reduction in plasma glucose from 0→t (%TRPG 0→t) was determined using the following equation:
%TRPG0→t=100(AACE/total area) (Eq.3)

[2] = rat, in vivo
Procedure: Each rat was weighed and identified using an indelible marker and anesthetized by intraperitoneal injection of ketamine: Xylazine: Acepromazine cocktail, at 80 mg/kg, 10 mg/kg and 2.0 mg/kg, respectively and returned to its cage. The rat was transferred to the surgical bench and placed on a heating blanket thermostatically controlled via rectal probe, once deep anesthesia was achieved.
The right jugular vein of each rat was catheterized using silicone tubing and the patency of the catheter was confirmed by slowly flushing the cannula with 200 μl heparin saline and then withdrawing 100 μl of blood. The cannula was then cleared with 200 μl of heparinized saline solution.
An endotrachcal tube was inserted using a fiber optic laryngoscope. The syringe (Hamilton syringe) of the instillator was attached to the endotracheal tube and used to instill solution (100 μl) in the airways. The endotracheal tube was removed following administration, and the breathing rate was monitored throughout the remainder of the study.
Blood samples (500 μl) were withdrawn at 0, 10, 30, 60, 90, 120 and 180 min and the cannula flushed with approximately 200 μl of heparinized saline solution. The blood was collected in 1 ml tuberculin syringes (containing 100 μl heparin 20 μ/ml) placed directly into microcentrifuge tubes.
Blood samples were immediately centrifuged at 10 000 rpm for 4 min.
Average insulin plasma concentrations over time were subjected to standard compartmental and non-compartmental pharmacokinetic analysis.
Average concentrations of insulin were fitted to the following equation:
CPins=A(e^−ke 1+e^−ka 1) (Eq.1)
where A=D ka/Vd (ka−ke) is the concentration of drug in the body at time zero, ka is the first order absorption rate constant, ke is the first order elimination rate constant.
The area under the lung concentration-time curve (AUC0−1) was calculated by the trapezoidal rule. Interpolation to infinity was performed by dividing the last Cins measured by the first-order rate constant of the terminal phase. The total area under the curve was estimated by the summation of these two compounds.
The elimination half-life was calculated from 0.693/ke where ke is the slope of the terminal phase of the log of the concentration-time profile.
The non-compartment analysis for insulin plasma concentrations over time was performed using standard techniques. The time to peak CPins (Tmax) and peak CPins (Cmax) were determined from the non-fitted average plasma concentrations (CPins) versus-time profiles for the treatments. AUC was calculated by the trapezoidal rule. MRT was not calculated due to a lack of data following intravenous administration from which to calculate pharmacokinetic parameters.

[3] = lung spray-IT, insulin 0.01 mg/kg alone
[4] = lung spray-IT, insulin 0.05 mg/kg alone
[5] = spray-IT, porcine insulin 0.01 mg/kg, Table 3
[6] = spray-IT, porcine insulin 0.05 mg/kg, Table 3
[7] = spray-IT, porcine insulin 0.1 mg/kg, Table 3
[8] = spray-IT, porcine insulin 0.5 mg/kg, Table 3
[9] = spray-IT, porcine insulin 1.0 mg/kg, Table 3

solubility (Solubility of carriers): 200 mg/mL
Compound: CC(C(=O)[O-])c1ccc(NC(=O)c2ccccc2O)cc1.[Na+] (stereo not drawn) [Sodium Salt of Carrier B, Sodium 2-(4-(N-salicyloyl)aminophenyl)propionate]

Cmax (serum insulin) [1]: 22.5 ± 4.0 μU/ml
Compound: COc1cccc(C(=O)Nc2ccc(CCC(=O)[O-])cc2)c1OC.[Na+] [Carrier C sodium salt]

Cmax (serum insulin) [1]: 44.6 ± 10.0 μU/ml
Compound: CC(C(=O)O)c1ccc(NC(=O)c2ccccc2O)cc1 (stereo not drawn) [Carrier B, 2-(4-(N-salicyloyl)aminophenyl) propionic acid]

The remaining lines, values behind:

Compound: Cc1ccc(C(=O)NCCCCCCCC(=O)O)c(O)c1 [Carrier D, N-(4-methylsalicyloyl)-8-aminocaprylic acid]
melting point: 113 to 114 °C | Cmax (serum insulin) [1]: 58.8 ± 12.0 μU/ml

Compound: Porcine Insulin: Lyophilized porcine insulin 25.9 IU/mg (Emisphere Technologies)
% MPGC (plasma glucose; [3]): 70.02% | % TRPG0-3 hr (plasma glucose; [3]): 10.5±1.5% | AACE0-t (plasma glucose; [3]): 1892 ± 989 mcU/min/ml | T % MPGC (plasma glucose; [3]): 180 min | % TRPG0-3 hr (plasma glucose; lung spray-IT, insulin 0.01 mg/kg alone, listed as Insulin alone): 10.5 ± 1.5% | % MPGC (plasma glucose; [4]): 35.7% | % TRPG0-3 hr (plasma glucose; [4]): 47±10% | AACE0-t (plasma glucose; [4]): 8497 ± 1716 mcU/min/ml | T % MPGC (plasma glucose; [4]): 120 min | % TRPG0-3 hr (plasma glucose; lung spray-IT, insulin 0.05 mg/kg alone, listed as Insulin alone): 47 ± 10% | % MPGC (plasma glucose; [5]): 70.2% | % TRPG0→3 hr (plasma glucose; [5]): 10.5 ± 1.5% | AACE0→t (plasma glucose; [5]): 1892 ± 989 μU · min/ml | T % MPGC (plasma glucose; [5]): 180 | % TRPG0→3 hr (plasma glucose; spray-IT, porcine insulin 0.01 mg/kg, Table 3, listed as insulin): 10.5% | % MPGC (plasma glucose; [6]): 35.69% | % TRPG0→3 hr (plasma glucose; [6]): 47.2 ± 9.5% | AACE0→t (plasma glucose; [6]): 8497 ± 1716 μU · min/ml | T % MPGC (plasma glucose; [6]): 120 | % MPGC (plasma glucose; [7]): 35.3% | % TRPG0→3 hr (plasma glucose; [7]): 50.5 ± 12.7% | AACE0→t (plasma glucose; [7]): 9102 ± 2295 μU · min/ml | T % MPGC (plasma glucose; [7]): 120 | % MPGC (plasma glucose; [8]): 30.6% | % TRPG0→3 hr (plasma glucose; [8]): 54.5 ± 6.5% | AACE0→t (plasma glucose; [8]): 10205 ± 1173 μU · min/ml | T % MPGC (plasma glucose; [8]): 60 | % MPGC (plasma glucose; [9]): 13.1% | % TRPG0→3 hr (plasma glucose; [9]): 73.7 ± 3.1% | AACE0→t (plasma glucose; [9]): 13266 ± 570 μU · min/ml | T % MPGC (plasma glucose; [9]): 120 | % TRPG0→3 hr (plasma glucose; spray-IT, porcine insulin 1.0 mg/kg, Table 3, listed as insulin): 73.7% | half-life of decline in plasma concentrations [2]: 27.8 to 142.4 min | t½ (abs) ([2]; 0.001 mg/kg): 27.8 min | t½ (elim) ([2]; 0.001 mg/kg): 3.0 min | t½ (abs) ([2]; 0.005 mg/kg): 42.6 min | t½ (elim) ([2]; 0.005 mg/kg): 3.0 min | tmax ([2]; 0.01 mg/kg): 10 min | tmax ([2]; 0.05 mg/kg): 10 min | AUC ([2]; 0.1 mg/kg): 9517.5 | tmax ([2]; 0.1 mg/kg): 10 min | AUC ([2]; 0.5 mg/kg): 60345 | tmax ([2]; 0.5 mg/kg): 30 min | AUC ([2]; 1 mg/kg): 178143.5 | tmax ([2]; 1 mg/kg): 30 min | relative bioavailability ([2]; sc): 12.46%
